Experimental data taken from patent US20250041387A1, “POLYPEPTIDE SEQUENCE OF KDM6B AND APPLICATION OF KDM6B IN REGULATING AND CONTROLLING FUNCTION OF MESENCHYMAL STEM CELL” (BEIJING STOMATOLOGICAL HOSPITAL, CAPITAL MEDICAL UNIVERSITY, priority 2021, published 2025).

Columns and labels:
[1] = test system: telomerase reverse transcriptase; assay: ELISA assay of telomerase reverse transcriptase in BMSCs; assay type: cell-based, human; conditions: FIG. 4A
Experimental: • (1) Pre-detection preparation: A standard curve was calculated and plotted using a standard concentration gradient of 400 ng/mL, 200 ng/ml, 100 ng/ml, 50 ng/mL, 25 ng/ml, 12.5 ng/mL, 6.25 ng/mL, and 0 ng/mL. • (2) 100 μL of the standards and samples were added to each well of a 96-well plate. The plate was covered with a provided sealing film, and incubated at 37° C. for 2 hours. The name of the sample was noted on the surface of the sealing film. • (3) The sample in each well was discarded and spin-dried without washing. • (4) 100 μL of Biotin-antibody (1×) was added to each well. The plate was covered with a sealing film, and incubated at […] for 1 hour. If Biotin-antibody (1×) appeared cloudy, Biotin-antibody was warmed to room temperature and stirred gently until clear. • (5) The sample in each well was discarded. Each well was added with 200 μL of Wash Buffer using a multichannel pipette and left to stand for 2 minutes for washing. This process was repeated twice for a total of three times of washing. Complete removal of liquid at each step was critical for good performance. After the last time of washing, the Wash Buffer was discarded, and the 96-well plate was turned upside down and dried with a clean paper. • (6) 100 μL of HRP-avidin (1×) was added to each well. The 96-well microtiter plate was covered with a new sealing film and incubated at 37° C. for 1 hour. • (7) The process of discarding samples and washing in […] was repeated 5 times. • (8) 90 μL of TMB Substrate was added to each well. The plate was incubated in the dark at 37° C. for 15-30 minutes. 50 μL of Stop Solution was added to each well, and the plate was gently taped to mix solution evenly. • (9) The optical density of each well was detected at 450 nm within 5 min using a microtiter plate reader.

[2] = test system: bone marrow mesenchymal stem cells; assay: β-gal staining and quantification in BMSCs; assay type: cell-based, human; conditions: FIG. 4B, C
Experimental: (§1) Prior to the start of the experiment, the GENMED staining solution (Reagent E) in the kit was taken out of the refrigerator at −20° C., and thawed in an ice bath. Then 9.5 mL of GENMED dilution (Reagent D) was added into a 15 ml conical centrifuge tube, added with 500 μL of GENMED staining solution (Reagent E), mixed well, and then preheated in a 37° C. thermostatic sink. The obtained mixture was labeled as GENMED staining working solution.

[3] = test system: senescent bone marrow mesenchymal stem cells; assay: Alizarin red staining and calcium quantification in senescent BMSCs of aged mice; assay type: cell-based, C57BL/6 mice; conditions: 2 weeks of osteogenic induction, FIG. 5C, D
Experimental: Result of ALP activity was calculated according to Y/incubation time/protein concentration. • (3) Alizarin red staining • 1) After two weeks of osteogenic induction, the culture medium was discarded. The cells were washed three times with PBS pre-cooled at 4° C., and fixed with 70% ethanol at 4° C. for 1 hour. • 2) The cells were washed 2 times with double distilled water, and stained with 40 mM alizarin red solution (pH 4.2) at room temperature for 10 minutes. The staining was observed by naked eyes. • 3) The cells were washed 3 times with double-distilled water. • (4) Determination of Ca^2+ concentration
To quantitatively determine the concentration of calcium, the cells were added with 10% cetyl pyridinium chloride for dissolution for 30 minutes at room temperature. The OD value was measured at 562 nm using a spectrophotometer, and the calcium ion concentration of the samples was calculated according to the standard curve of calcium ion concentration, with the total protein concentration as an internal reference.

[4] = test system: stem cells from apical papilla; assay: β-gal staining and quantification in SCAPs; assay type: cell-based, human; conditions: SCAPs treated with polypeptide, FIG. 8C, D
Experimental: as §1

[5] = biological target: KDM6B/WDR5 protein complex (Homo sapiens, UniProt P61964); assay: Co-IP of KDM6B/WDR5 complex in stem cells from apical papilla; assay type: cell-based; design: endogenous in cells; host or cells: stem cells from apical papilla (SCAPs); conditions: SCAPs treated with polypeptide, compared to control group; FIG. 8A
Experimental: Protein was extracted from cells of knockout group and overexpression group using IP lysate. The knockout group cells SCAPs-Scramsh and SCAPs-KDM6Bsh, SCAPs-Scramsh and SCAPs-WDR5sh, BMSCs-Scramsh and BMSCs-WDR5sh were added with KDM6B antibody, WDR5 antibody, and IgG antibody, respectively, and then rotated on a shaker at 4° C. overnight. On the next day, the cells were added with Protein A/G beads and rotated on a rotary shaker at 4° C. for 2 hours. A complex of protein-antibody-agarose bead was formed, and the formation of a protein complex of KDM6B and WDR5WB was detected by WB. The overexpression group cells SCAPs-Vector, SCAPs-HA-KDM6B, SCAPs-HA-KDM6B-mut102, and SCAPs-HA-KDM6B-mut114 were added with ProteinA/G beads with HA antibody, and cells SCAPs Vector and SCAPs-Myc-WDR5 were added with ProteinA/G beads with Myc antibody. All cells were incubated overnight to form a complex of protein-antibody-agarose bead. The formation of a protein complex of KDM6B and WDR5 was detected by WB method. • (2) Grouping: Input group (loading amount of 25 μg); antibody group (loading amount of 800 μg, 2 μg of antibody); IgG group (loading amount of 800 μg, 2 μg of antibody). Samples were diluted with lysate. • (3) Preparation of protein A/G beads
The protein A/G beads were washed 4 times with PBS, and centrifuged at 2000 g for 2 minutes. […]

Row | Substance | expression of telomerase reverse transcriptase (ELISA) [1] | expression of telomerase reverse transcriptase (ELISA) ([1]; listed as 114 peptide) | number of β-gal positive cells (quantification) [2] | number of β-gal positive cells (quantification) ([2]; listed as 114 peptide) | mineralization capacity, quantification of calcium ion [3] | mineralization capacity, quantification of calcium ion ([3]; listed as 114 peptide) | number of β-gal positive cells (quantification) [4] | number of β-gal positive cells (quantification) ([4]; listed as 114 peptide) | binding of KDM6B to WDR5 (Co-IP) [5] | number of β-gal positive cells (quantification) ([2]; listed as 102 peptide) | mineralization capacity, quantification of calcium ion ([3]; listed as 102 peptide) | number of β-gal positive cells (quantification) ([4]; listed as 102 peptide)
1 | FITC-(Acp)-ADLTISHCAADVVRAYGRKKRRQRRR [peptide 114] | promote the expression | 0.03888 | significant reduction | 16.76 | significantly higher | 1.251 | significant reduction | 3.978 | reduced | – | – | –
2 | FITC-(Acp)-KEKSRRVLGNLDLQSYGRKKRRQRRR [peptide 102] | 0.02236 | – | significant reduction | – | significantly higher | – | significant reduction | – | reduced | 19.33 | 1.154 | 7.296
